Data as given in patent US20060100245A1, “Substituted biphenyl-4-carboxylic acid arylamide analogues” (Neurogen Corporation, priority 2002, published 2006).

Target: T1, human capsaicin receptor (VR1) (Homo sapiens, UniProt Q8NER1)
T1 construct: transfected with the pBK-CMV expression construct encoding the full length human capsaicin receptor; expressed in transfected cells
Test: Capsaicin receptor binding assay ([3H]RTX competition)
Conditions: read-out: Ki
Excerpt: This Example illustrates the preparation of VR1-transfected cells and membrane preparations for use in binding assays (Example 5) and functional assays (Example 6).
A cDNA encoding full length human capsaicin receptor (SEQ ID NO: 1, 2 or 3 of U.S. Pat. No. 6,482,611) was subcloned in the plasmid pBK-CMV (Stratagene, La Jolla, Calif.) for recombinant expression in mammalian cells.
Human embryonic kidney (HEK293) cells were transfected with the pBK-CMV expression construct encoding the full length human capsaicin receptor using standard methods. The transfected cells were selected for two weeks in media containing G418 ([…]) to obtain a pool of stably transfected cells. Independent clones were isolated from this pool by limiting dilution to obtain clonal stable cell lines for use in subsequent experiments.
For radioligand binding experiments, cells were seeded in T175 cell culture flasks in media without antibiotics and grown to approximately 90% confluency. The flasks were then washed with PBS and harvested in PBS containing 5 mM EDTA. The cells were pelleted by gentle centrifugation and stored at −80° C. until assayed.
Previously frozen cells were disrupted with the aid of a tissue homogenizer in ice-cold HEPES homogenization buffer (5mM KCl 5, 5.8 mM NaCl, 0.75 mM CaCl2, 2 mM MgCl2, 320 mM sucrose, and 10 mM HEPES pH 7.4). Tissue homogenates were first centrifuged for 10 minutes at 1000×g (4° C.) to remove the nuclear fraction and debris, and then the supernatant from the first centrifugation is further centrifuged for 30 minutes at 35,000×g (4° C.) to obtain a partially purified membrane fraction. Membranes were resuspended in the HEPES homogenization buffer prior to the assay. An aliquot of this membrane homogenate is used to determine protein concentration via the Bradford method (BIO-RAD Protein Assay Kit, #500-0001, BIO-RAD, Hercules, Calif.).
This Example illustrates a representative assay of capsaicin receptor binding that may be used to determine the binding affinity of compounds for the capsaicin (VR1) receptor.
Binding studies with [^3H] Resiniferatoxin (RTX) are carried out essentially as described by Szallasi and Blumberg (1992) J. Pharmacol. Exp. Ter. 262: 883-888. In this protocol, non-specific RTX binding is reduced by adding bovine alpha, acid glycoprotein (100 μg per tube) after the binding reaction has been terminated.
[^3H] RTX (37 Ci/mmol) is synthesized by and obtained from the Chemical Synthesis and Analysis Laboratory, National Cancer Institute-Frederick Cancer Research and Development Center, Frederick, Md. [^3H] RTX may also be obtained from commercial vendors (e.g., Amersham Pharmacia Biotech, Inc.; Piscataway, N.J.).
The membrane homogenate of Example 4 is centrifuged as before and resuspended to a protein concentration of 333 μg/ml in homogenization buffer. Binding assay mixtures are set up on ice and contain [^3H]JRTX (specific activity 2200 mCi/ml), 2 μl non-radioactive test compound, 0.25 mg/ml bovine serum albumin (Cohn fraction V), and 5×10^4−1×10^5 VR1-transfected cells. The final volume is adjusted to 500 μl (for competition binding assays) or 1,000 μl (for saturation binding assays) with the ice-cold HEPES homogenization buffer solution (pH 7.4) described above. Non-specific binding is defined as that occurring in the presence of 1 μM non-radioactive RTX (Alexis Corp.; San Diego, Calif.). For saturation binding, [^3H]RTX is added in the concentration range of […], using 1 to 2 dilutions. Typically 11 concentration points are collected per saturation binding curve.
Competition binding assays are performed in the presence of 60 pM [^3H]RTX and various concentrations of test compound. The binding reactions are initiated by transferring the assay mixtures into a 37° C. water bath and are terminated following a 60 minute incubation period by cooling the tubes on ice.

T1 sequence (Q8NER1 whole entry): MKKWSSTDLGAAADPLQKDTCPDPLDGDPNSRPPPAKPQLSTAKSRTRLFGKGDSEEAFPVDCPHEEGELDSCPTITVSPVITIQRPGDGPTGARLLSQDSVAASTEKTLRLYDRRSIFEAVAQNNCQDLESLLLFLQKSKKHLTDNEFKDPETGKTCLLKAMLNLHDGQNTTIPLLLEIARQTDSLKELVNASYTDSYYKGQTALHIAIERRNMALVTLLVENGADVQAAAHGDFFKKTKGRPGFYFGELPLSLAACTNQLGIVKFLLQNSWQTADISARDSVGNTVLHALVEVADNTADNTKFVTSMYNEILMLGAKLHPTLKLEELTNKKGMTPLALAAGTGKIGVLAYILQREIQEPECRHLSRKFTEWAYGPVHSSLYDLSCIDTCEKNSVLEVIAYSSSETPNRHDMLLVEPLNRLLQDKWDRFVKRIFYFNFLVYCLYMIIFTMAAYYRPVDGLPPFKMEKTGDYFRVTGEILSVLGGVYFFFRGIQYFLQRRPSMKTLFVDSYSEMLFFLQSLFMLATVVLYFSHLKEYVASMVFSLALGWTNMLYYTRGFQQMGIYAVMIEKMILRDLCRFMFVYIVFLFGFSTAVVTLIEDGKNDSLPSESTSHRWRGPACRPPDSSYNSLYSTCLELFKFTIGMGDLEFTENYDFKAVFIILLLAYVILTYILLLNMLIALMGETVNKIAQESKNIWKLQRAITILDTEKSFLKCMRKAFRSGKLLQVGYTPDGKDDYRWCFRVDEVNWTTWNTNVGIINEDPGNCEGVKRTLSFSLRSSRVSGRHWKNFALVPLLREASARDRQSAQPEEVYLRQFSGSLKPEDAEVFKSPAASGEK

Cc1cccc(-c2ccc(C(=O)Nc3ccc4sc(C)nc4c3)cn2)c1 [Compound 208, N-(2-Methyl-benzothiazol-5-yl)-6-m-tolyl-nicotinamide]
Ki: < 1 µM

Cc1nc2cc(NC(=O)c3ccc(-c4ccccc4)nc3)ccc2s1 [Compound 209, N-(2-Methyl-benzothiazol-5-yl)-6-phenyl-nicotinamide]
Ki: < 1 µM

O=C(Nc1ccc(F)c(F)c1)c1ccc(-c2ncccc2F)cc1 [Compound 214, N-(3,4-Difluoro-phenyl)-4-(3-fluoro-pyridin-2-yl)-benzamide]
Ki: < 1 µM

O=C(Nc1ccc2c(c1)OCCCO2)c1ccc(-c2ccccc2F)nc1 [Compound 218, N-(3,4-Dihydro-2H-benzo[b][1,4]dioxepin-7-yl)-6-(2-fluoro-phenyl)-nicotinamide]
Ki: < 1 µM

O=C(Nc1ccc2c(c1)OCCCO2)c1ccc(-c2cccc(F)c2)nc1 [Compound 220, N-(3,4-Dihydro-2H-benzo[b][1,4]dioxepin-7-yl)-6-(3-fluoro-phenyl)-nicotinamide]
Ki: < 1 µM

CC(C)c1cccc(-c2ccc(C(=O)Nc3ccc4c(c3)OCCCO4)cn2)c1 [Compound 221, N-(3,4-Dihydro-2H-benzo[b][1,4]dioxepin-7-yl)-6-(3-isopropyl-phenyl)-nicotinamide]
Ki: < 1 µM

O=C(Nc1ccc2c(c1)OCCCO2)c1ccc(-c2cccc(OC(F)(F)F)c2)nc1 [Compound 223, N-(3,4-Dihydro-2H-benzo[b][1,4]dioxepin-7-yl)-6-(3-trifluoromethoxy-phenyl)-nicotinamide]
Ki: < 1 µM

O=C(Nc1ccc2c(c1)OCCCO2)c1ccc(-c2ccccc2)nc1 [Compound 230, N-(3,4-Dihydro-2H-benzo[b][1,4]dioxepin-7-yl)-6-phenyl-nicotinamide]
Ki: < 1 µM

COc1ccc(NC(=O)c2ccc(-c3ccccc3F)nc2)cc1OC [Compound 232, N-(3,4-Dimethoxy-phenyl)-6-(2-fluoro-phenyl)-nicotinamide]
Ki: < 1 µM

Cc1cc(C)cc(-c2ccc(C(=O)Nc3ccc(C)c(C)c3)cn2)c1 [Compound 237, N-(3,4-Dimethyl-phenyl)-6-(3,5-dimethyl-phenyl)-nicotinamide]
Ki: < 1 µM

CCOc1cccc(-c2ccc(C(=O)Nc3ccc(C)c(C)c3)cn2)c1 [Compound 238, N-(3,4-Dimethyl-phenyl)-6-(3-ethoxyl-phenyl)-nicotinamide]
Ki: < 1 µM

Cc1ccc(NC(=O)c2ccc(-c3cccc(F)c3)nc2)cc1C [Compound 239, N-(3,4-Dimethyl-phenyl)-6-(3-fluoro-phenyl)-nicotinamide]
Ki: < 1 µM

COc1cccc(-c2ccc(C(=O)Nc3ccc(C)c(C)c3)cn2)c1 [Compound 241, N-(3,4-Dimethyl-phenyl)-6-(3-methoxy-phenyl)-nicotinamide]
Ki: < 1 µM

Cc1ccc(NC(=O)c2ccc(-c3cccc(OC(F)(F)F)c3)nc2)cc1C [Compound 242, N-(3,4-Dimethyl-phenyl)-6-(3-trifluoromethoxy-phenyl)-nicotinamide]
Ki: < 1 µM

Cc1cccc(-c2ccc(C(=O)Nc3ccc(C)c(C)c3)cn2)c1 [Compound 247, N-(3,4-Dimethyl-phenyl)-6-m-tolyl-nicotinamide]
Ki: < 1 µM

Cc1ccc(NC(=O)c2ccc(-c3ccccc3C)nc2)cc1C [Compound 248, N-(3,4-Dimethyl-phenyl)-6-o-tolyl-nicotinamide]
Ki: < 1 µM

Cc1ccc(NC(=O)c2ccc(-c3ccccc3)nc2)cc1C [Compound 249, N-(3,4-Dimethyl-phenyl)-6-phenyl-nicotinamide]
Ki: < 1 µM

Cc1ccc(NC(=O)c2ccc(-c3cccc(F)c3)nc2)cc1F [Compound 266, N-(3-Fluoro-4-methyl-phenyl)-6-(3-fluoro-phenyl)-nicotinamide]
Ki: < 1 µM

Cc1ccc(NC(=O)c2ccc(-c3cccc(C(C)C)c3)nc2)cc1F [Compound 267, N-(3-Fluoro-4-methyl-phenyl)-6-(3-isopropyl-phenyl)-nicotinamide]
Ki: < 1 µM

COc1cccc(-c2ccc(C(=O)Nc3ccc(C)c(F)c3)cn2)c1 [Compound 268, N-(3-Fluoro-4-methyl-phenyl)-6-(3-methoxy-phenyl)-nicotinamide]
Ki: < 1 µM

COc1cccc(NC(=O)c2ccc(-c3cccc(OC(F)(F)F)c3)nc2)c1 [Compound 278]
Ki: < 1 µM

COc1cccc(NC(=O)c2ccc(-c3cccc(C)c3)nc2)c1 [Compound 280, N-(3-Methoxy-phenyl)-6-m-tolyl-nicotinamide]
Ki: < 1 µM

COc1cccc(NC(=O)c2ccc(-c3ccccc3)nc2)c1 [Compound 282, N-(3-Methoxy-phenyl)-6-phenyl-nicotinamide]
Ki: < 1 µM

CC(C)(C)c1cccc(NC(=O)c2ccc(-c3ccccc3F)nc2)c1 [Compound 288, N-(3-tert-Butyl-phenyl)-6-(2-fluoro-phenyl)-nicotinamide]
Ki: < 1 µM

CC(C)(C)c1cccc(NC(=O)c2ccc(-c3cccc(F)c3)nc2)c1 [Compound 296, N-(3-tert-Butyl-phenyl)-6-(3-fluoro-phenyl)-nicotinamide]
Ki: < 1 µM

Cc1cc(C)cc(-c2ccc(C(=O)Nc3ccc(Br)c(Cl)c3)cn2)c1 [Compound 316, N-(4-Bromo-3-chloro-phenyl)-6-(3,5-dimethyl-phenyl)-nicotinamide]
Ki: < 1 µM

CCOc1cccc(-c2ccc(C(=O)Nc3ccc(Br)c(Cl)c3)cn2)c1 [Compound 317, N-(4-Bromo-3-chloro-phenyl)-6-(3-ethoxy-phenyl)-nicotinamide]
Ki: < 1 µM

O=C(Nc1ccc(Br)c(Cl)c1)c1ccc(-c2cccc(F)c2)nc1 [Compound 318, N-(4-Bromo-3-chloro-phenyl)-6-(3-fluoro-phenyl)-nicotinamide]
Ki: < 1 µM

O=C(Nc1ccc(Br)c(Cl)c1)c1ccc(-c2ccc(F)cc2)nc1 [Compound 320, N-(4-Bromo-3-chloro-phenyl)-6-(4-fluoro-phenyl)-nicotinamide]
Ki: < 1 µM

CC(C)c1ccc(-c2ccc(C(=O)Nc3ccc(Br)c(Cl)c3)cn2)cc1 [Compound 321, N-(4-Bromo-3-chloro-phenyl)-6-(4-isopropyl-phenyl)-nicotinamide]
Ki: < 1 µM

CCCCc1ccc(NC(=O)c2ccc(-c3ncccc3Cl)cc2)cc1 [Compound 332, N-(4-Butyl-phenyl)-4-(3-chloro-pyridin-2-yl)-benzamide]
Ki: < 1 µM

CCCCc1ccc(NC(=O)c2ccc(-c3ccccc3C)nc2)cc1 [Compound 343, N-(4-Butyl-phenyl)-6-o-tolyl-nicotinamide]
Ki: < 1 µM

O=C(Nc1ccc(Cl)cc1)c1ccc(-c2ccccc2F)nc1 [Compound 348, N-(4-Chloro-phenyl)-6-(2-fluoro-phenyl)-nicotinamide]
Ki: < 1 µM

O=C(Nc1ccc(C2CCCC2)cc1)c1ccc(-c2ncccc2F)cc1 [Compound 363, N-(4-Cyclopenyl-phenyl)-4-(3-fluoro-pyridin-2-yl)-benzamide]
Ki: < 1 µM

CCc1ccc(NC(=O)c2ccc(-c3ccccc3F)nc2)cc1 [Compound 365, N-(4-Ethyl-phenyl)-6-(2-fluoro-phenyl)-nicotinamide]
Ki: < 1 µM

CCc1ccc(NC(=O)c2ccc(-c3ccccc3C)nc2)cc1 [Compound 374, N-(4-Ethyl-phenyl)-6-o-tolyl-nicotinamide]
Ki: < 1 µM

O=C(Nc1ccc(F)cc1)c1ccc(-c2ncccc2F)cc1 [Compound 375, N-(4-Fluoro-phenyl)-4-(3-fluoro-pyridin-2-yl)-benzamide]
Ki: < 1 µM
